According to patent US4647586A, “Pharmaceutical oil-in-water type micro-emulsion” (priority 1984, dated 1987):
Read-outs that look alike come from different tables or passages of the source.

Key:
[1] = tested on: brewer's yeast-induced fever; test: Effects on body temperature in pyretic rats (antipyretic activity); assay type: in vivo, SD-strain male rats; settings: iv, read-out: ED50 (dose reducing body temperature by at least 1.5° C. in 50% of the rats)
Experimental: (a) Experimental animals SD-strain male rats (120-185 g).
(§1) (b) Test drugs: The same as in A-1 [Test 2].
Male Sprague-Dawley rats, weighing 120-185 g, were injected subcutaneously in the nape of the neck with 2 ml of a 20% suspension of dried brewers yeast in physiological saline. Drugs and vehicles were administered intravenously 17 hours after treatment of yeast suspension. Rectal temperature was recorded with a thermistor type thermometer (Natsume Seisakusho, BMA-77 Type) just prior to drug administration and at 1/2, 1, 2 and 4 hours after drug administration.

[2] = tested on: Adjuvant-induced polyarthritis; test: Adjuvant-induced polyarthritis in rats, adjuvant-injected paw [Test 2]; assay type: in vivo, SD-strain female rats; settings: for ED20: Rattus norvegicus, iv, read-out: ED20 (dose required to cause a 20% inhibition of adjuvant-injected paw volume)
Experimental: (a) Experimental animals: SD-strain famale rats 140-180g).
as §1
Rats were anesthetized with ether inhalation, and 0.6 mg of Mycobacterium butyricum suspended in 0.1 ml of white paraffin oil was immediately injected intradermally into the planter surface of the left hind paw of each rat via a 27 gauge needle fitted to a 0.5 ml syringe (day 0). On the 14th day after the adjuvant injection, arthritis-established rats selected by development of secondary lesions were used. Volumes of both hind paws in arthritis-established rats were measured by a plethysmometer (UGO BASILE), and the rats were randomized on the basis of the edema volume in the adjuvant-injected paw. Once daily, beginning on the 14th day up to the 18th day, drugs and vehicles were administered intravenously. Measurements of both paw volumes were performed every day from the 15th day up to the 18th day, and on the 21st day and the 24th day. The inhibition percent were calculated in accordance with the calculation formula as in [Test 1] of A-1.

[3] = tested on: Carrageenin-induced paw edema; test: Carrageenin-induced paw edema in rats [Test 2]; assay type: in vivo, SD-strain male rats; settings: for ED30: Rattus norvegicus, iv, read-out: ED30 (dose required to cause a 30% inhibition of edema volume)
Experimental: (a) Experimental animals: SD-strain male rats (120-180 g).
A micro-emulsion containing ethyl 4-biphenylylacetate prepared as in Examples 11, 12, 13 and 14 given hereinafter was administered at a dose of 5 ml per kg of the animals. Venolipid® (Morishita Pharmaceutical Co., Ltd.) was used as a vehicle control. As control drugs, a solution or suspension of ethyl 4-biphenylylacetate in physiological saline containing 0.5% Cremophor EL® (Sigma Chemical Company, a solubilizing agent), 0.2% of polyethylene glycol 400 and 10% of dimethyl sulfoxide, a physiological saline solution of sodium 4-biphenylylacetate and a physiological saline solution of Aspirin DL-lysine [Venopirin®, Green Cross Co.] were used. As the vehicle control of the control drugs, the above solvents were used.
A 1% carrageenin solution in physiological saline was injected subcutaneously in an amount of 0.05 ml into the planter surface of the left hind paw of each rat via a 25 gauge needle fitted to a 0.25 ml syringe. One hour after carrageenin injection, the rats were randomized on the basis of the edema volume, and intravenous administration of the drugs and vehicles followed immediately. The volume of the left hind paw was measured by a plethysmometer (Ugo Basile) prior to the injection of the carrageenin solution and at 2, 3, 4, 5 and 6 hours after the carrageenin injection. As the volume of edema, an increase in the paw volume was taken.
The inhibition percents were calculated in accordance with the same calculation formula as in Test 1.

[4] = tested on: abnormal 3-legged gait (brewers yeast-inflamed paw); test: Reversal of abnormal 3-legged gait in rats (analgesic activity); assay type: in vivo, SD-strain male rats; settings: Rattus norvegicus, iv, read-out: ED50 (dose causing at least 50% reversal of gait score in 50% of the rats)
Experimental: (a) Experimental animals: SD-strain male rats (120-165 g).
as §1
A 40% suspension of dried brewers yeast in physiological saline was injected (0.25 ml/rat) subcutaneously into the planter surface of the left hind paw of each rat. Three hours later, the walking gait on a wire mesh platform was assessed for each rat.
0 = Normal gait in the presence of a severely
0.5 = As above, with intermittent mild limping.
1.0 = Constant limping, but continuous use of
1.5 = Limping with occasional 3-legged gait
2.0 = Continous 3-Legged gait and/or only the
Any rat not showing a gait score of 2 was eliminated from this test. Drugs and vehicles were then administered intravenously. Measurements of the gait were made at 1, 2, 3 and 4 hours after drug administration.

[5] = tested on: synthesis of prostaglandin; settings: E. L. Tolman, American Cyanamid Company's report; cited from earlier work
[6] = rat, in vivo
Experimental: (a) Experimental animals: Wistar-strain male rats (body weight 60-220 g), 6 per group.
The rats were periodically killed, and the major organs were extracted. The concentration of the drug in the tissues were measured by the conventional HPLC method.

[7] = in vivo, po; cited from earlier work

CC(=O)Oc1ccccc1C(=O)O (racemic) [Aspirin-DL.Lysine]
ED50 ([1]; 17 h): 76.3 mg/kg
Inhibition (%) ([2]; 50 mg/kg/day i.v. as aspirin, day 15): -2.7%
Inhibition (%) ([2]; 50 mg/kg/day i.v. as aspirin, day 16): -5.2%
Inhibition (%) ([2]; 50 mg/kg/day i.v. as aspirin, day 17): -3.8%
Inhibition (%) ([2]; 50 mg/kg/day i.v. as aspirin, day 18): -2.6%
Inhibition (%) ([2]; 50 mg/kg/day i.v. as aspirin, day 21): -12.4%
Inhibition (%) ([2]; 50 mg/kg/day i.v. as aspirin, day 24): -20.0%
Inhibition (%) ([2]; 100 mg/kg/day i.v. as aspirin, day 15): 4.0%
Inhibition (%) ([2]; 100 mg/kg/day i.v. as aspirin, day 16): 9.2%
Inhibition (%) ([2]; 100 mg/kg/day i.v. as aspirin, day 17): 13.2%
Inhibition (%) ([2]; 100 mg/kg/day i.v. as aspirin, day 18): 6.8%
Inhibition (%) ([2]; 100 mg/kg/day i.v. as aspirin, day 21): 4.2%
Inhibition (%) ([2]; 100 mg/kg/day i.v. as aspirin, day 24): -2.8%
Inhibition (%) ([2]; 200 mg/kg/day i.v. as aspirin, day 15): 6.7%
Inhibition (%) ([2]; 200 mg/kg/day i.v. as aspirin, day 16): 11.3%
Inhibition (%) ([2]; 200 mg/kg/day i.v. as aspirin, day 17): 16.4%
Inhibition (%) ([2]; 200 mg/kg/day i.v. as aspirin, day 18): 15.3%
Inhibition (%) ([2]; 200 mg/kg/day i.v. as aspirin, day 21): 7.2%
Inhibition (%) ([2]; 200 mg/kg/day i.v. as aspirin, day 24): 6.2%
ED20 [2]: 320 mg/kg
Inhibition (%) ([3]; 50 mg/kg i.v. as aspirin, 2 h after carrageenin): 24.2%
Inhibition (%) ([3]; 50 mg/kg i.v. as aspirin, 3 h after carrageenin): 26.7%
Inhibition (%) ([3]; 50 mg/kg i.v. as aspirin, 4 h after carrageenin): 35.7%
Inhibition (%) ([3]; 50 mg/kg i.v. as aspirin, 5 h after carrageenin): 29.6%
Inhibition (%) ([3]; 50 mg/kg i.v. as aspirin, 6 h after carrageenin): 30.0%
Inhibition (%) ([3]; 100 mg/kg i.v. as aspirin, 2 h after carrageenin): 24.2%
Inhibition (%) ([3]; 100 mg/kg i.v. as aspirin, 3 h after carrageenin): 26.7%
Inhibition (%) ([3]; 100 mg/kg i.v. as aspirin, 4 h after carrageenin): 26.8%
Inhibition (%) ([3]; 100 mg/kg i.v. as aspirin, 5 h after carrageenin): 22.2%
Inhibition (%) ([3]; 100 mg/kg i.v. as aspirin, 6 h after carrageenin): 20.0%
Inhibition (%) ([3]; 200 mg/kg i.v. as aspirin, 2 h after carrageenin): 37.9%
Inhibition (%) ([3]; 200 mg/kg i.v. as aspirin, 3 h after carrageenin): 43.3%
Inhibition (%) ([3]; 200 mg/kg i.v. as aspirin, 4 h after carrageenin): 50.0%
Inhibition (%) ([3]; 200 mg/kg i.v. as aspirin, 5 h after carrageenin): 42.6%
Inhibition (%) ([3]; 200 mg/kg i.v. as aspirin, 6 h after carrageenin): 44.0%
ED30 [3]: 81.6 mg/kg
ED50 [4]: 93.2 mg/kg

O=C(O)Cc1ccc(-c2ccccc2)cc1 [4-biphenylylacetic acid, 4-Biphenylylacetic acid]
IC50, inhibition of synthesis of prostaglandin [5]: 0.68 ng/mL

CCOC(=O)Cc1ccc(-c2ccccc2)cc1 [Ethyl 4-biphenylylacetate]
ED50 ([1]; 17 hours after yeast, against vehicle control): 3.1 mg/kg
Inhibition (%) ([2]; 1.25 mg/kg/day i.v. as 4-biphenylylacetic acid, day 15): -8.0%
Inhibition (%) ([2]; 1.25 mg/kg/day i.v. as 4-biphenylylacetic acid, day 16): -5.1%
Inhibition (%) ([2]; 1.25 mg/kg/day i.v. as 4-biphenylylacetic acid, day 17): -3.3%
Inhibition (%) ([2]; 1.25 mg/kg/day i.v. as 4-biphenylylacetic acid, day 18): -4.6%
Inhibition (%) ([2]; 1.25 mg/kg/day i.v. as 4-biphenylylacetic acid, day 21): -19.2%
Inhibition (%) ([2]; 1.25 mg/kg/day i.v. as 4-biphenylylacetic acid, day 24): -23.2%
Inhibition (%) ([2]; 2.5 mg/kg/day i.v. as 4-biphenylylacetic acid, day 15): -3.7%
Inhibition (%) ([2]; 2.5 mg/kg/day i.v. as 4-biphenylylacetic acid, day 16): 0%
Inhibition (%) ([2]; 2.5 mg/kg/day i.v. as 4-biphenylylacetic acid, day 17): 6.7%
Inhibition (%) ([2]; 2.5 mg/kg/day i.v. as 4-biphenylylacetic acid, day 18): 5.8%
Inhibition (%) ([2]; 2.5 mg/kg/day i.v. as 4-biphenylylacetic acid, day 21): -6.5%
Inhibition (%) ([2]; 2.5 mg/kg/day i.v. as 4-biphenylylacetic acid, day 24): -17.5%
Inhibition (%) ([2]; 5.0 mg/kg/day i.v. as 4-biphenylylacetic acid, day 15): 5.6%
Inhibition (%) ([2]; 5.0 mg/kg/day i.v. as 4-biphenylylacetic acid, day 16): 7.2%
Inhibition (%) ([2]; 5.0 mg/kg/day i.v. as 4-biphenylylacetic acid, day 17): 15.5%
Inhibition (%) ([2]; 5.0 mg/kg/day i.v. as 4-biphenylylacetic acid, day 18): 15.0%
Inhibition (%) ([2]; 5.0 mg/kg/day i.v. as 4-biphenylylacetic acid, day 21): 8.9%
Inhibition (%) ([2]; 5.0 mg/kg/day i.v. as 4-biphenylylacetic acid, day 24): 1.3%
Inhibition (%) ([2]; 10.0 mg/kg/day i.v. as 4-biphenylylacetic acid, day 15): 2.8%
Inhibition (%) ([2]; 10.0 mg/kg/day i.v. as 4-biphenylylacetic acid, day 16): 10.7%
Inhibition (%) ([2]; 10.0 mg/kg/day i.v. as 4-biphenylylacetic acid, day 17): 15.2%
Inhibition (%) ([2]; 10.0 mg/kg/day i.v. as 4-biphenylylacetic acid, day 18): 15.6%
Inhibition (%) ([2]; 10.0 mg/kg/day i.v. as 4-biphenylylacetic acid, day 21): 3.0%
Inhibition (%) ([2]; 10.0 mg/kg/day i.v. as 4-biphenylylacetic acid, day 24): -9.8%
ED20 [2]: 14.5 mg/kg
Inhibition (%) ([3]; 1.25 mg/kg i.v. as 4-biphenylylacetic acid, 2 h after carrageenin): 14.0%
Inhibition (%) ([3]; 1.25 mg/kg i.v. as 4-biphenylylacetic acid, 3 h after carrageenin): 17.5%
Inhibition (%) ([3]; 1.25 mg/kg i.v. as 4-biphenylylacetic acid, 4 h after carrageenin): 9.6%
Inhibition (%) ([3]; 1.25 mg/kg i.v. as 4-biphenylylacetic acid, 5 h after carrageenin): 9.8%
Inhibition (%) ([3]; 1.25 mg/kg i.v. as 4-biphenylylacetic acid, 6 h after carrageenin): 6.4%
Inhibition (%) ([3]; 2.5 mg/kg i.v. as 4-biphenylylacetic acid, 2 h after carrageenin): 19.3%
Inhibition (%) ([3]; 2.5 mg/kg i.v. as 4-biphenylylacetic acid, 3 h after carrageenin): 26.3%
Inhibition (%) ([3]; 2.5 mg/kg i.v. as 4-biphenylylacetic acid, 4 h after carrageenin): 17.3%
Inhibition (%) ([3]; 2.5 mg/kg i.v. as 4-biphenylylacetic acid, 5 h after carrageenin): 17.6%
Inhibition (%) ([3]; 2.5 mg/kg i.v. as 4-biphenylylacetic acid, 6 h after carrageenin): 12.8%
Inhibition (%) ([3]; 5.0 mg/kg i.v. as 4-biphenylylacetic acid, 2 h after carrageenin): 17.5%
Inhibition (%) ([3]; 5.0 mg/kg i.v. as 4-biphenylylacetic acid, 3 h after carrageenin): 28.1%
Inhibition (%) ([3]; 5.0 mg/kg i.v. as 4-biphenylylacetic acid, 4 h after carrageenin): 23.1%
Inhibition (%) ([3]; 5.0 mg/kg i.v. as 4-biphenylylacetic acid, 5 h after carrageenin): 23.5%
Inhibition (%) ([3]; 5.0 mg/kg i.v. as 4-biphenylylacetic acid, 6 h after carrageenin): 19.1%
Inhibition (%) ([3]; 10.0 mg/kg i.v. as 4-biphenylylacetic acid, 2 h after carrageenin): 22.8%
Inhibition (%) ([3]; 10.0 mg/kg i.v. as 4-biphenylylacetic acid, 3 h after carrageenin): 22.8%
Inhibition (%) ([3]; 10.0 mg/kg i.v. as 4-biphenylylacetic acid, 4 h after carrageenin): 26.9%
Inhibition (%) ([3]; 10.0 mg/kg i.v. as 4-biphenylylacetic acid, 5 h after carrageenin): 25.5%
Inhibition (%) ([3]; 10.0 mg/kg i.v. as 4-biphenylylacetic acid, 6 h after carrageenin): 27.7%
ED30 [3]: 15.8 mg/kg
Transferability to the tissues [6]: showed the same transferability to the tissues

O=C(O)CCC(=O)c1ccc(-c2ccccc2)cc1 [Fenbufen, 4-(4-biphenyl)-4-oxobutyric acid]
Side effects on the digestive organs [7]: considerably reduced as compared with conventional non-steroidal anti-inflammatory agents
